Experimental data taken from publication PMC9518248, “Inhibition of Toxoplasma gondii by 1,2,4-triazole-based compounds: marked improvement in selectivity relative to the standard therapy pyrimethamine and sulfadiazine” (Journal of Enzyme Inhibition and Medicinal Chemistry, 2022).
Values after ≈ are worked out from the molar mass of the structure shown. “Also recorded” adds a separate entry of the source.

How the values were obtained:
[1] = system: T. gondii RH-GFP; test: Antiparasitic assay: T. gondii RH-GFP proliferation in Hs27 cells; type: cell-based, Toxoplasma gondii
[2] = Haemolytic activity determination; type: cell-based; conditions: 2% suspension of human red blood cells, human RBCs, 37 °C, 30 min, read-out: Haemolysis (%)
Experimental: (§1) Human red blood cells (RBCs) concentrate was obtained from the Regional Blood Donation and Transfusion Centre (Lublin, Poland). RBCs concentrate (5 mL) was washed three times with sterile PBS and centrifuged at 500 g for 3 min. […] The amount of free haemoglobin in supernatants was measured spectrophotometrically at 405 nm. Negative and positive controls were performed by incubating RBCs with sterile PBS and 0.1% Triton-X, respectively. Each experiment was run in triplicate.

[3] = system: Human red blood cells (RBCs); test: Haemolytic activity determination; type: cell-based; conditions: at the concentration equal to its IC50Tg
Experimental: as §1

[4] = system: Human Hs27 cells; test: Genotoxic activity, single cell gel electrophoresis (comet assay); type: cell-based; conditions: 24 h, concentration equal to IC50Tg
Experimental: All the procedures performed were in line with the manufacturer’s protocol. Human Hs27 cells, previously exposed for 24 h to the compound, were combined with liquefied low melting Agarose at 37 °C and transferred onto the OxiSelect comet slides. After storing for 15 min at 4 °C, the slides were immersed in a pre-chilled Lysis Buffer (for 45 min at 4 °C) and Alkaline Solution (for 30 min at 4 °C). Afterwards, the Alkaline Solution was replaced with pre-chilled TBE electrophoresis solution. After immersing for 5 min, the slides were put into the horizontal electrophoresis chamber and covered with TBE electrophoresis buffer. The electrophoresis was run for 15 min at 1 volt/cm. Finally, DNA was stained with Vista Green DNA Dye for 15 min at room temperature and observed under fluorescence microscope (Olympus BX63, Tokyo, Japan). The images of cells were captured using XM10 digital camera (Olympus). The DNA damage was measured quantitatively using OpenComet software. At least 50 randomly selected images were used in each analysis.

[5] = system: T. gondii tachyzoites of the RH-GFP strain; test: Intracellular Toxoplasma tachyzoites proliferation assay (Assay B); type: cell-based, Toxoplasma gondii; conditions: 3 h infection, then 24 h treatment at 35.35, 70.70, 176.75 μg/mL; dose-dependent
[6] = system: Tyrosinase (TYR) from mushrooms; test: Inhibition of tyrosinase activity assay; type: biochemical; conditions: for Diphenolase activity: substrate DOPA; for Monophenolase activity: substrate L-tyrosine
Experimental: Tyrosinase (TYR) from mushrooms ([…], Sigma) was used in our study. We analysed inhibition of 20 b on both monophenolase and diphenolase activity of TYR. All compound dilutions, both substrate L-tyrosine (Tyr) and levodopa (DOPA), and TYR were prepared in 50 mM phosphate buffer (pH 6.5). […] Firstly, the substrate and compound were added to a 96-well flat-bottom plate (Nunc MaxiSorp^TM, Roskilde, Denmark), next TYR was added and the initial absorbance (A0) was measured spectrophotometrically at 492 nm. Then, the plate was incubated at 25 °C for 30 min. After incubation, the amount of dopachrome produced in the reaction mixture was determined spectrophotometrically at 492 nm (A30) using the multi-mode microplate reader SpectraMax® i3. As 100% TYR activity samples without addition of compound, were used. The average results from three experiments are shown.

[7] = PAMPA-BBB assay; type: in vitro ADME
Experimental: BBB permeability of 20b was investigated using a parallel artificial membrane permeability assay (PAMPA) method. The PAMPA system, consisted of a 96-well microfilter plate, was divided into two chambers: a donor at the bottom and an acceptor at the top, separated by a 120-μm-thick microfilter disc coated with BBB lipid solution (Pion, Inc., Billerica, MA). The solutions of 20b were prepared in dimethylsulphoxide (DMSO) at 4 mg/mL concentration and then diluted with Prisma buffer (pH = 7.4) to obtain the donor drug solution with the final nominal concentration of 20 μg/mL. Then, 180 μL of the donor solution were added to the donor wells. Subsequently, each filter membrane of the top plate was coated with 5 μL BBB-1 lipid solution (Pion Inc.) and the acceptor well was filled with 200 μL of Brain Sink Buffer (BSB). The acceptor plate and the donor plate were sandwiched together and incubated at 37 °C for 180 min.
The permeability coefficient value (Pe) was calculated by using the following equation: Pe=−ln(1−CA/Cequilibrium)/S×(1/VD+1/VA)×t where VD – donor volume, VA – acceptor volume, Cequilibrium – equilibrium concentration, Cequilibrium=CD×VD+CA×VA/VD+VA, CD – donor concentration, CA – acceptor concentration, S – membrane area, and t – incubation time (in seconds).

[8] = Cytotoxicity against glioblastoma cells (MTT); type: cell-based, human; conditions: human, T98G glioblastoma cells, MTT, read-out: Viability of T98G cells (% of control ± SD)
Experimental: (§2) Cytotoxic effect of 20b was evaluated using glioblastoma (T98G) cells obtained from the American Type Culture Collection (Manassas, VA). Cells were cultured in Dulbecco’s Modified Eagle’s Medium (DMEM-high glucose) (Sigma Aldrich, St. Louis, MO), supplemented with 10% heat inactivated FBS, penicillin (100 U/mL), and streptomycin (100 μg/mL) (Sigma Aldrich, St. Louis, MO). Cells were maintained in a humidified atmosphere of 5% CO2 and 95% air at 37 °C. Stock solutions of the investigated compounds (20b and temozolomide) were prepared by dissolving solid substances in a sterile DMSO. T98G glioblastoma cells were seeded into 96-well sterile plates at a density of 1 × 10^5cells/mL. After 24 h of incubation, the medium was removed from each well and then cells were incubated for the next 24 h with different concentrations of the investigated compounds (10, 25, 35, 50, and 100 µg/mL) in the medium containing 2% FBS. Viability of T98G cells was evaluated using MTT assay, whose principle is based on the conversion of 3–(4,5-dimethylthiazol-2-yl)-2,5-diphenyltetrazolium bromide (MTT) into dark-blue formazan crystals. In brief, after 24 h incubation of cells with varying concentrations of the tested compounds, culture medium was removed from the plate. Cells were washed with PBS, and then 100 µL of medium containing 10% MTT solution (5 mg/mL) was added to each well. After 3 h incubation, 100 µL (per well) of 10% SDS buffer solution was added to solubilise formazan crystals. After overnight incubation the absorbance was measured at 570 nm using a microplate reader (Epoch, BioTek Instruments, Winooski, VT). Experiments were repeated three times, and the measurements in each experiment were run in quadruplicate. Viability of the investigated cells was expressed as % of the viability of the untreated cells.

[9] = system: human glioblastoma T98G cells; test: Cytotoxicity against glioblastoma cells (MTT); type: cell-based; conditions: 24 h
Experimental: as §2

[10] = system: T. gondii tachyzoites of the RH-GFP strain; test: Toxoplasma tachyzoites invasion assay (Assay A); conditions: 3 h pre-treatment at 35.35, 70.70 and 176.75 μg/mL, then 24 h treatment-free
Experimental: The Hs27 cells were cultured on Lab-Tek™ 4-well Chamber Slides (Nunc) (5 × 10^4 cells/500 μL per well).
Then, the cells were washed to remove extracellular parasites and parasite culture medium (without any compounds) was added for 24 h.
In both assays as the control, Hs27 cells were infected, but not treated. After subsequent 24 h of incubation (Assay A and B), the slides were washed with sterile PBS, fixed with formaldehyde solution (252549, Sigma-Aldrich), 3.7% in PBS for 20 min, and stained with DAPI for 10 min (1 mg/mL, ThermoFisher Scientific, Waltham, MA). Microscopic analysis of 100 cells in turn, comprised of counting the infected cell ratio and tachyzoites per each parasitophorous vacuoles of infected cell, was performed using a fluorescent microscope (Axio Scope.A1, Carl Zeiss, Germany) at a magnification ×1000. For image processing ZEISS ZEN Microscope Software version 3.1 (Oberkochen, Germany) was used. Three independent experiments on triplicate chamber slides using the same conditions for both assays were performed.

[11] = 1 µM, % of activity without compound

COc1ccc(-n2c(-c3[nH]cnc3C)n[nH]c2=S)cc1 [20b]
selectivity (SI) relative to PYR ([1]; SI of compound vs SI of PYR): 11 fold | selectivity (SI) relative to SDZ ([1]; SI of compound vs SI of SDZ): 160 fold | selectivity (SI) relative to TRI ([1]; SI of compound vs SI of TRI): 4 fold | IC50 ([1]; Toxoplasma gondii, T. gondii RH-GFP in Hs27 cells, 96 h, values above highest tested concentration extrapolated, read-out: IC50Tg): 35.4 µg/mL (≈ 123 µM) | SI ([1]; selectivity index, CC30 (L929)/IC50Tg): 70.72 | hemolysis at 30 min, 5 µg/mL ([2]; 5 µg/mL): 0.038 ± 0.007% | hemolysis at 30 min, 10 µg/mL ([2]; 10 µg/mL): 0.104 ± 0.042% | hemolysis at 30 min, 35 µg/mL ([2]; 35 µg/mL): 0.183 ± 0.086% | haemolytic activity [3]: no specific haemolytic activity; also recorded: no specific haemolytic changes | % DNA in comet tail [4]: 3.38 ± 0.45% | genotoxic effect (DNA damage) [4]: no induction of DNA damage; also recorded: no genotoxic effect | intracellular proliferation: size of PV and number of tachyzoites per PV [5]: significant reduction in both size of the PV and number of intra vacuolar tachyzoites | Diphenolase activity [6, 11]: 94.6 ± 3.3% | Monophenolase activity [6, 11]: 101.76 ± 4.69% | Diphenolase activity ([6]; 10 µM): 99.6 ± 0.7% | Monophenolase activity ([6]; 10 µM): 99.01 ± 1.79% | Diphenolase activity ([6]; 25 µM): 92.7 ± 1.7% | Monophenolase activity ([6]; 25 µM): 92.97 ± 2.54% | Diphenolase activity ([6]; 50 µM): 91.2 ± 1.2% | Monophenolase activity ([6]; 50 µM): 90.66 ± 4.29% | Diphenolase activity ([6]; 100 µM): 75.3 ± 7.8% | Monophenolase activity ([6]; 100 µM): 70.81 ± 2.18% | Diphenolase activity ([6]; 200 µM): 52.7 ± 6.8% | Monophenolase activity ([6]; 200 µM): 46.79 ± 4.31% | Diphenolase activity ([6]; 400 µM): 25.7 ± 12.8% | Monophenolase activity ([6]; 400 µM): 23.09 ± 8.35% | inhibitory effect on tyrosinase activity ([6]; at concentrations below 50 µM): < 10% | BBB permeation classification ([7]; CNS+ if Pe > 5.19, CNS− if Pe < 2.07 (× 10^−6 cm·s^−1)): centrally active | Papp at 180 min, 20 μg/mL ([7]; pH 7.4, 37 °C, 180 min, read-out: permeability coefficient Pe): 34.9 ± 2.73 ×10⁻⁶ cm/s | viability at 24 h, 10 µg/mL ([8]; 10 µg/mL): 94.2 ± 2.06% | viability at 24 h, 25 µg/mL ([8]; 25 µg/mL): 92 ± 3.27% | viability at 24 h, 35 µg/mL ([8]; 35 µg/mL): 87.15 ± 0.55% | viability at 24 h, 50 µg/mL ([8]; 50 µg/mL): 82.1 ± 1.73% | viability at 24 h, 100 µg/mL ([8]; 100 µg/mL): 76.26 ± 0.74% | reduction of T98G cell viability ([9]; 10 µg/mL): ~6% | reduction of T98G cell viability ([9]; 100 µg/mL): ~24% | parasite invasion: percentage of infected cells [10]: did not cause significant reductions in percentage of infected cells
